Reference: patent US9169496B2, “Method for the enzymatic production of butadiene” (Scientist of Fortune, S.A., priority 2011, dated 2015)

Test system: 4-methyl-5-(2-hydroxyethyl)thiazole kinase from E. coli
Test: Kinetic parameters of crotyl alcohol phosphorylation (spectrophotometric assay of Example 2)
Format: biochemical
Conditions: crotyl alcohol phosphorylation by purified E. coli kinase
Experimental: The release of ADP that is associated with crotyl alcohol phosphorylation was quantified using the pyruvate kinase/lactate dehydrogenase coupled assay (FIG. 5). The purified 4-methyl-5-(2-hydroxyethyl)thiazole kinases from Escherichia coli (SEQ ID NO:2), Bacillus subtilis (SEQ ID NO:1), Rhizobium leguminosarum (SEQ ID NO:3) were evaluated for their ability to phosphorylate crotyl alcohol releasing ADP. The studied enzymatic reaction was carried out under the following conditions at 37° C.: • 50 mM Tris-HCl pH 7.5 • 10 mM MgCl2 • 100 mM KCl • 5 mM ATP • 0.4 mM NADH • 1 mM Phosphoenolpyruvate • 3 U/ml Lactate dehydrogenase • 1.5 U/ml Pyruvate kinase • 50 mM crotyl alcohol, mixture cis and trans • The pH was adjusted to 7.5
Each assay was started by addition of a particular enzyme at a concentration 0.05 mg/ml and the disappearance of NADH was monitored by following the absorbance at 340 nm.
Kinetic parameters of crotyl alcohol phosphorylation were determined using the spectrophotometric assay described in Example 2.

Compound | Km
C/C=C\CO [Cis crotyl alcohol] | 13.6 mM
C/C=C/CO [Trans crotyl alcohol] | 30 mM
